Assay results published in publication PMC9019904, “AD Informer Set: Chemical tools to facilitate Alzheimer's disease drug discovery” (Alzheimer's & Dementia : Translational Research & Clinical …, 2022).

Tests used:
[1] = system: BV2 (mouse microglia) cell line; test: pHrodo-myelin phagocytosis/cell viability high content imaging assay: phagocytosis signal; format: cell-based
Summary of the method: (§1)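 HCI read-out ~22 h post pHrodo-myelin; phagocytosis + viability simultaneously; 3 parameters extracted; intensity up = early apoptosis, down = later apoptosis.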

[2] = system: HMC3 (human microglia) cell line; test: as above; format: cell-based
Summary of the method: as §1

[3] = system: BV2 (mouse microglia) cell line; test: pHrodo-myelin phagocytosis/cell viability high content imaging assay: viability (cell count, nuclear area, nuclear intensity); details: 48 hours treatment
Summary of the method: (§2)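 Viability was read as total cell count per well by high-content imaging, with mean average nuclear intensity per cell profiling apoptosis (rise early, fall late). Compounds were given at 10 μM for 48 h, pHrodo-myelin being added for the final 20 h. Values are means of two points as % untreated control.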

[4] = system: HMC3 (human microglia) cell line; test: as above; details: 48 hours treatment
Summary of the method: as §2

[5] = BV2 cells, 10 uM compound, 48 hours treatment, pHrodo-myelin final 20 hours
[6] = HMC3 cells, 10 uM compound, 48 hours treatment, pHrodo-myelin final 20 hours
[7] = BV2, compound 10 uM, pHrodo-myelin
[8] = HMC3, compound 10 uM, pHrodo-myelin

Compound	4. Phagocytosis (% control) [1, 5]	4. Phagocytosis (% control) [2, 6]	1. Cell count (% control) ([3]; BV2 cells, 10 uM compound)	2. Nuclear Area (% Control) ([3]; BV2 cells, 10 uM compound)	3. Nuclear DNA Intensity (% control) ([3]; BV2 cells, 10 uM compound)	1. Cell count (% control) ([4]; HMC3 cells, 10 uM compound)	2. Nuclear Area (% Control) ([4]; HMC3 cells, 10 uM compound)	3. Nuclear DNA Intensity (% control) ([4]; HMC3 cells, 10 uM compound)	4. Phagocytosis (% control) [1, 7]	4. Phagocytosis (% control) [2, 8]	1. Cell count (% control) ([3]; BV2, compound 10 uM)	2. Nuclear Area (% Control) ([3]; BV2, compound 10 uM)	3. Nuclear DNA Intensity (% control) ([3]; BV2, compound 10 uM)	1. Cell count (% control) ([4]; HMC3, compound 10 uM)	2. Nuclear Area (% Control) ([4]; HMC3, compound 10 uM)	3. Nuclear DNA Intensity (% control) ([4]; HMC3, compound 10 uM)
CN(C)CCCn1c(N)c(-c2nc3ccccc3[nH]2)c2nc3ccccc3nc21 [UNC10302891A]	109.5 % control	44.4 % control	121.8 % control	105.7 % Control	98.0 % control	137.9 % control	99.6 % Control	97.0 % control	–	–	–	–	–	–	–	–
CC(C)c1ccc(/C=N/NC(=O)c2ccc(O)cc2)cc1 [UNC10302878A]	129.4 % control	80.2 % control	104.0 % control	103.1 % Control	108.0 % control	137.1 % control	101.0 % Control	96.0 % control	–	–	–	–	–	–	–	–
Cc1cc2c(cc1C(=O)c1ccc(C(=O)O)cc1)C(C)(C)CCC2(C)C [UNC10302892A]	90.2 % control	75.7 % control	95.3 % control	107.4 % Control	95.0 % control	88.9 % control	102.9 % Control	97.5 % control	–	–	–	–	–	–	–	–
CCOC(=O)c1sc(NC(=O)c2ccco2)c(SC#N)c1C [UNC10302907A]	201.8 % control	29.4 % control	60.9 % control	107.8 % Control	107.1 % control	96.1 % control	63.3 % Control	173.6 % control	–	–	–	–	–	–	–	–
Cc1c(COc2cc(OCc3cccc(C#N)c3)c(CN3C[C@H](O)C[C@@H]3C(=O)O)cc2Cl)cccc1-c1ccc2c(c1)OCCO2 [UNC10302972A]	125.1 % control	111.9 % control	81.0 % control	106.7 % Control	113.8 % control	116.0 % control	98.5 % Control	101.3 % control	–	–	–	–	–	–	–	–
CCOC(=O)N1CCC(Nc2c(NCCN3CCN(c4cccc(C(F)(F)F)c4)CC3)c(=O)c2=O)CC1 [UNC10302706A]	–	–	–	–	–	–	–	–	143.2 % control	75.0 % control	117.8 % control	102.0 % Control	95.9 % control	111.8 % control	102.2 % Control	96.9 % control
CC/C(=C(\c1ccccc1)c1ccc(OCCN(C)C)cc1)c1ccccc1 [UNC10101258B]	–	–	–	–	–	–	–	–	320.1 % control	72.6 % control	72.9 % control	98.7 % Control	95.7 % control	–	95.6 % Control	91.8 % control
Cc1cc(NC(=O)Nc2ccc(F)c(F)c2)n(-c2ccccc2)n1 [UNC10302846A]	158.9 % control	71.8 % control	131.4 % control	104.7 % Control	107.1 % control	127.2 % control	103.4 % Control	94.5 % control	–	–	–	–	–	–	–	–
C[C@H](N/C(=N\c1cccc2ncccc12)NC#N)c1ccccc1 [UNC10302855A]	124.5 % control	63.4 % control	130.8 % control	103.4 % Control	103.1 % control	114.9 % control	101.2 % Control	97.7 % control	–	–	–	–	–	–	–	–
CCOC(=O)N1c2ccc(C(F)(F)F)cc2[C@@H](N(Cc2cc(C(F)(F)F)cc(C(F)(F)F)c2)C(=O)OC)C[C@H]1CC [UNC10302851A]	135.7 % control	85.4 % control	124.9 % control	104.2 % Control	100.1 % control	125.3 % control	99.8 % Control	94.2 % control	–	–	–	–	–	–	–	–
CC[C@H](Nc1ncnc2[nH]cnc12)c1nc2cccc(F)c2c(=O)n1-c1ccccc1 [Idelalisib]	–	–	–	–	–	–	–	–	107.9 % control	5.6 % control	17.2 % control	138.0 % Control	108.4 % control	61.4 % control	105.8 % Control	124.0 % control
c1cn2cc(-c3ccc4cn[nH]c4c3)nc(Nc3ccc(N4CCOCC4)cc3)c2n1 [UNC10302678A]	0.6 % control	43.6 % control	22.1 % control	102.9 % Control	164.6 % control	74.7 % control	98.9 % Control	212.8 % control	–	–	–	–	–	–	–	–
CCOC(=O)CS(=O)(=O)c1ccc([C@@H](CO)NC(=O)c2cc3c(Cl)c(Cl)c(C)cc3n2C)cc1 [UNC10302908A]	249.0 % control	53.1 % control	28.9 % control	117.3 % Control	97.5 % control	71.6 % control	75.5 % Control	156.6 % control	–	–	–	–	–	–	–	–
O=c1[nH]c(=O)n([C@H]2C[C@H](O)[C@@H](CO)O2)cc1/C=C/Br [UNC10100235A]	118.4 % control	83.2 % control	94.9 % control	117.1 % Control	94.6 % control	104.1 % control	100.7 % Control	100.8 % control	–	–	–	–	–	–	–	–
Cl.O=C(O)Cc1cccc(OCCCN(Cc2cccc(C(F)(F)F)c2Cl)CC(c2ccccc2)c2ccccc2)c1 [UNC10302974A]	136.8 % control	78.3 % control	123.1 % control	107.6 % Control	102.2 % control	138.8 % control	100.4 % Control	95.2 % control	–	–	–	–	–	–	–	–
CCN1CCN(Cc2ccc(NC(=O)c3ccc(C)c(NC(=O)c4cncc(-c5cccs5)c4)c3)cc2C(F)(F)F)CC1 [UNC10303158A]	–	–	–	–	–	–	–	–	0.0043 % control	0.0256 % control	10.2 % control	124.4 % Control	45.5 % control	36.9 % control	59.1 % Control	194.1 % control
CC(=O)NCC(=O)N1[C@@H]2CC[C@H]1c1ccc(Nc3ncc(C(F)(F)F)c(NC4CCC4)n3)cc12 [UNC10302896A]	0.15 % control	16.0 % control	18.3 % control	110.7 % Control	18.8 % control	69.3 % control	158.3 % Control	82.5 % control	–	–	–	–	–	–	–	–
c1ccc(-c2nn3c(c2-c2ccnc4cc(OCCN5CCOCC5)ccc24)CCC3)nc1 [UNC10302849A]	134.3 % control	64.5 % control	150.2 % control	109.6 % Control	98.8 % control	117.4 % control	115.4 % Control	85.1 % control	–	–	–	–	–	–	–	–
CC1(COc2ccc3c(c2)ncn3-c2ccc3cccc(N4CCC(N)CC4)c3n2)COC1 [UNC10223898A]	–	–	–	–	–	–	–	–	0.00125 % control	0.347 % control	26.6 % control	103.7 % Control	28.1 % control	60.3 % control	56.9 % Control	188.8 % control
